Measurements reported in patent US11827628B2, “Compositions and methods for inhibition of the JAK pathway” (Rigel Pharmaceuticals, Inc., priority 2005, dated 2023).

These compounds were tested on Primary human T-cells (assay: Primary Human T-Cell Proliferation Assay Stimulated with IL-2 (CellTiter-Glo)). Details: primary human T-cell proliferation stimulated with IL-2; read-out: IC50, Example 42.
Assay type: cell-based
Outline: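 IC50 derived from CellTiter-Glo ATP signal after 72 hours of IL-2-driven proliferation at 37° C. Cells: primary human T-cells from blood, stimulated beforehand 3-4 days on anti-CD3/anti-CD28 with IL-2, then rested from IL-2 before compound exposure in duplicate; IL-2-free wells served as unstimulated control.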
`Cc1ccc(Nc2ncc(F)c(Nc3cc(C)c(OCC(N)=O)c(C)c3)n2)cc1S(N)(=O)=O` [Compound I-96, N4-(4-Aminocarbonylmethoxy-3,5-dimethyl)phenyl-N2-(3-aminosulfonyl-4-methyl)phenyl-5-fluoro-2,4-pyrimidinediamine] showed an IC50 of 772 nM.
`NS(=O)(=O)c1cccc(Nc2ncc(F)c(Nc3ccc(SCc4cccnc4)cc3)n2)c1` [Compound I-192, N2-(3-Aminosulfonylphenyl)-5-fluoro-N4-[4-(3-pyridinyl)-methylenethiophenyl]-2,4-pyrimidinediamine] showed an IC50 of 155 nM.
`Cc1ccc(Nc2ncc(F)c(Nc3ccc(OCc4ccccn4)cc3)n2)cc1S(N)(=O)=O` [Compound I-160, N2-(3-Aminosulfonyl-4-methylphenyl)-5-fluoro-N4-[4-(2-pyridinyl)methyleneoxyphenyl]-2,4-pyrimidinediamine] was tested, and the IC50 was 248 nM.
With `CNS(=O)(=O)c1cc(Nc2ncc(F)c(Nc3ccc(OCc4cccnc4)cc3)n2)ccc1C` [Compound I-190, 5-Fluoro-N2-[3-(N-methylaminosulfony)-4-methylphenyl]-5-fluoro-N4-[4-(3-pyridinyl)methyleneoxyphenyl]-2,4-pyrimidinediamine] the IC50 was 242 nM.
`NS(=O)(=O)c1cccc(Nc2ncc(F)c(Nc3ccc(OCc4cccnc4)cc3)n2)c1` [Compound I-188, N2-(3-Aminosulfonylphenyl)-5-fluoro-N4-[4-(3-pyridinyl)methyleneoxyphenyl]-2,4-pyrimidinediamine] was tested, and the IC50 was 64.2 nM.
Compound `CN1CCN(c2ccc(Nc3ncc(F)c(Nc4ccc(OCC#N)cc4)n3)cc2S(N)(=O)=O)CC1` [Compound I-9, N2-[3-Aminosulfonyl-4-(4-methylpiperazin-1-yl)phenyl]-5-fluoro-N4-(4-cyanomethyleneoxyphenyl)-2,4-pyrimidinediamine] has an IC50 of 485 nM.

Same assay, conditions: primary human T-cells stimulated with IL-2, proliferation; read-out: IC50, Example 42
In the case of `CNC(=O)N1CCCc2cc(Nc3nc(Nc4ccc(C)c(S(N)(=O)=O)c4)ncc3F)ccc21` [VII-19, N2-(3-Aminosulfonyl-4-methylphenyl)-5-fluoro-N4-[1-(methylaminocarbonyl)-1,2,3,4-tetrahydroquin-6-yl]-2,4-pyrimidinediamine], the IC50 is reported as 514 nM.
In the case of `N#CCn1ccc2cc(Nc3nc(Nc4cccc(S(N)(=O)=O)c4)ncc3F)ccc21` [IX-5, N2-(3-Aminosulfonylphenyl)-N4-(1-cyanomethyleneindol-5-yl)-5-fluoro-2,4-pyrimidinediamine], the IC50 is reported as 73.8 nM.
In the case of `CN(C)C(=O)C1Cc2cc(Nc3nc(Nc4ccc(Cl)c(S(N)(=O)=O)c4)ncc3F)ccc2O1` (racemic) [VII-27, Racemic N2-(3-Aminosulfonyl-4-chlorophenyl)-N4-[2-(N,N-dimethylaminocarbonyl)-2,3-dihydrobenzofuran-5-yl]-5-fluoro-2,4-pyrimidinediamine], the IC50 is reported as 2050 nM.
`Cc1ccc(Nc2ncc(F)c(Nc3ccc4c(c3)c(CC#N)cn4C)n2)cc1S(N)(=O)=O` [IX-20] showed an IC50 of 1790 nM.
In the case of `Cc1ccc(Nc2ncc(F)c(Nc3ccc4c(c3)CN(C(=O)N(C)C)CC4)n2)cc1S(N)(=O)=O` [VII-18, N2-(3-Aminosulfonyl-4-methylphenyl)-5-fluoro-N4-[2-(dimethylaminocarbonyl)-1,2,3,4-tetrahydroisoquin-7-yl]-2,4-pyrimidinediamine], the IC50 is reported as 839 nM.
`Cc1ccc(Nc2ncc(F)c(Nc3ccc4c(c3)CNCC4)n2)cc1S(N)(=O)=O` [VII-16, N2-(3-Aminosulfonyl-4-methylphenyl)-5-fluoro-N4-(1,2,3,4-tetrahydroisoquin-7-yl)-2,4-pyrimidinediamine] showed an IC50 of 1070 nM.
